In patent US11559057B2, “Insecticidal mixtures of bifenthrin and chlorantraniliprole” (FMC CORPORATION, priority 2019, dated 2023):

How the values were obtained:
Assay type in all cases: in vivo
[1] = test system: S. frugiperda field strain; assay: Example 5C ratio study, mortality and Colby synergy, field strain (protocol H)
Method: (§1) Ratios of bifenthrin to chlorantraniliprole were evaluated on various crops and target pests as indicated in the protocol disclosed Table 5A below where “Lab.” Refers to laboratory, “No. of Treat.” refers to number of treatments, and Total refers to the total number of insects tested. In each evaluation, foliar application was done, the insecticide action was contact/ingestion and 32 insects were evaluated in each treatment.
(§2) The treatment schedule shown in Table 5B was used where “dose” refers to application rate, “ratio” refers to the ratio of bifenthrin to chlorantraniliprole on an a.i. basis.
(§3) Treatments were applied inside a sprayer chamber simulating a volume of 200 l/ha over soybean plants. After a drying period, treated leaves were removed from the plants and placed inside 16 well trays containing agar solution (2%) covered with filter paper. Two 16 well trays were prepared for each treatment (32 larvae/treatment). One 3rd instar larva from laboratory strains was placed in each well over the treated leaf. Trays were kept under controlled conditions of 25° C., photoperiod of 14:10 hours, and 60% RH. Morality was evaluated after 96 hours. Mortality is defined as dead and moribund larvae.
(§4) Synergy or antagonism was determined using the Colby Equation where: E=X+(100−X)(Y)/100)=X+Y−X*Y/100. X is the observed result for compound A at p grams a.e./ha. Y is the observed result for compound B at q grams a.e./ha. E is the expected result for a mixture of A and B at (p+q) g a.i./ha if there is no synergy or antagonism. If the observed value for the combination of A and B is greater than E (Obs>E) then synergy is indicated. If the observed value for the combination of A and B is less than E (Obs<E) then antagonism is indicated.
(§5) Morality on S. frugiperda was evaluated according to protocols G and H (refer to Table 5B), but where two S. frugiperda strains were tested: a laboratory strain (susceptible) and a field strain in F3 generation sampled in the 2018/2019 season in Sinop-MT region using treatment numbers 5.1 to 5.10 (refer to Table 5B). The results are reported in Tables 5E (Laboratory Strain) and 5F (Filed Strain).

[2] = test system: S. frugiperda laboratory strain (susceptible); assay: Example 5C ratio study, mortality and Colby synergy, laboratory strain (protocol G); settings: Spodoptera frugiperda, 96 hours
Method: as §1, §2, §3, §4, §5

H. armigera 3rd instar = assay: Example 5B ratio study, treated leaf bioassay, mortality and Colby synergy (protocol B)
Method: as §1, §2, §3, §4
Morality on H. armigera was evaluated according to protocol B (refer to Table 5B) using treatment numbers 5.1 to 5.13 (refer to Table 5B).

[3] = test system: E. heros 3rd instar nymphs; assay: Example 5D ratio study on soybean plants, mortality and Colby synergy, nymphs (protocol C); settings: statement for E. heros (nymphs and adults, protocols C and D)
Method: as §1, §2, §4
(§6) Morality on E. heros was evaluated according to protocols C and D (refer to Table 5B). […] Mortality was evaluated after 72 hours. […]

C. includens 3rd instar = assay: Example 5A ratio study, treated leaf bioassay, mortality and Colby synergy (protocol A); settings: at 7.5 g a.i./ha
Method: as §1, §2
Treatments were applied inside a sprayer chamber simulating a volume of 200 l/ha over soybean plants. After a drying period, treated leaves were removed from the plants and placed inside 16 well trays containing agar solution (2%) covered with filter paper. […] Morality was evaluated after 96 hours. […]
Synergy or antagonism was determined using the Colby Equation where: E=X+(100−X)(Y)/100)=X+Y−X*Y/100. […]
Morality on C. includens was evaluated according to protocol A (refer to Table 5B) using treatment numbers 5.1, 5.3, 5.5 to 5.8 and 5.10 to 5.13 (refer to Table 5B). The results are reported in Table 5C below where mortality is the mean mortality, the E value was calculated by the Colby equation, and the synergy value is determined by dividing the mean mortality (%) by the expected value (E).

[4] = test system: D. melachantus 3rd instar nymphs; assay: Example 5E ratio study, mortality and Colby synergy, nymphs (protocol E); settings: statement for D. melacanthus (nymphs and adults, protocols E and F)
Method: as §1, §2, §4, §6
Morality on D. melachantus was evaluated according to protocols E and F (refer to Table 5B). […]

Cc1c(COC(=O)[C@@H]2[C@H](/C=C(\Cl)C(F)(F)F)C2(C)C)cccc1-c1ccccc1 (racemic) [Bifenthrin, 2-methylbiphenyl-3-ylmethyl (Z)-(1RS)-cis-3-(2-chloro-3,3,3-trifluoroprop-1-enyl)-2,2-dimethyl cyclopropanecarboxylate]
mortality at 10 g/ha ([1]; Spodoptera frugiperda, Bifenthrin 10 g a.i./ha, 96 hours): 3.1% | mortality at 15 g/ha ([1]; Spodoptera frugiperda, Bifenthrin 15 g a.i./ha, 96 hours): 3.1% | mortality at 30 g/ha ([1]; Spodoptera frugiperda, Bifenthrin 30 g a.i./ha, 96 hours): 15.6% | mortality at 45 g/ha ([1]; Spodoptera frugiperda, Bifenthrin 45 g a.i./ha, 96 hours): 43.8% | mortality at 60 g/ha ([1]; Spodoptera frugiperda, Bifenthrin 60 g a.i./ha, 96 hours): 43.8% | control of S. frugiperda ([1]; lower doses of bifenthrin, especially on the field strain): lower control | mortality at 10 g/ha ([2]; Bifenthrin 10 g a.i./ha): 34.4% | mortality at 15 g/ha ([2]; Bifenthrin 15 g a.i./ha): 53.1% | mortality at 30 g/ha ([2]; Bifenthrin 30 g a.i./ha): 78.1% | mortality at 45 g/ha ([2]; Bifenthrin 45 g a.i./ha): 96.9% | mortality at 60 g/ha ([2]; Bifenthrin 60 g a.i./ha): 93.8% | mortality at 10 g/ha (H. armigera 3rd instar; Helicoverpa armigera, Bifenthrin 10 g a.i./ha, 96 hours): 0% | mortality at 15 g/ha (H. armigera 3rd instar; Helicoverpa armigera, Bifenthrin 15 g a.i./ha, 96 hours): 0% | mortality at 30 g/ha (H. armigera 3rd instar; Helicoverpa armigera, Bifenthrin 30 g a.i./ha, 96 hours): 0% | mortality at 45 g/ha (H. armigera 3rd instar; Helicoverpa armigera, Bifenthrin 45 g a.i./ha, 96 hours): 0% | mortality at 60 g/ha (H. armigera 3rd instar; Helicoverpa armigera, Bifenthrin 60 g a.i./ha, 96 hours): 9.4% | control of H. armigera (H. armigera 3rd instar; even at a higher dose of 60 g a.i./ha, H. armigera resistance to pyrethroids): lower control

CNC(=O)c1cc(Cl)cc(C)c1NC(=O)c1cc(Br)nn1-c1ncccc1Cl [Chlorantraniliprole, 5-bromo-N-[4-chloro-2-methyl-6-(methylcarbamoyl)phenyl]-2-(3-chloropyridin-2-yl)pyrazole-3-carboxamide]
mortality at 5 g/ha ([1]; Spodoptera frugiperda, Chlorantraniliprole 5 g a.i./ha, 96 hours): 40.6% | mortality at 7.5 g/ha ([1]; Spodoptera frugiperda, Chlorantraniliprole 7.5 g a.i./ha, 96 hours): 59.4% | mortality at 5 g/ha ([2]; Chlorantraniliprole 5 g a.i./ha): 96.9% | mortality at 7.5 g/ha ([2]; Chlorantraniliprole 7.5 g a.i./ha): 100% | mortality at 5 g/ha (H. armigera 3rd instar; Helicoverpa armigera, Chlorantraniliprole 5 g a.i./ha, 96 hours): 84.4% | mortality at 7.5 g/ha (H. armigera 3rd instar; Helicoverpa armigera, Chlorantraniliprole 7.5 g a.i./ha, 96 hours): 100% | H. armigera control (H. armigera 3rd instar; at 7.5 g a.i./ha): most effective | control of E. heros [3]: did not control | control of C. includens (C. includens 3rd instar): most effective | control of D. melacanthus [4]: did not control
